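How tested: cells in 96-well plates exposed to compound for 48 hours at five concentrations. TGI denotes the concentration required for complete inhibition of growth.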
Assays:
Assay in all cases: inhibition of tumour cell growth, NCI panel, 48 h
K-562 leukemia = test system: K-562 leukemia
OVCAR-4 ovarian = test system: OVCAR-4 ovarian
786-0 renal = test system: 786-0 renal
NCI-H23 lung = test system: NCI-H23 lung
SF-295 CNS = test system: SF-295 CNS
MDA-N = test system: MDA-N
NCI/ADR-RES ovarian = test system: NCI/ADR-RES ovarian
NCI-H460 lung = test system: NCI-H460 lung
BT-549 breast = test system: BT-549 breast
SR leukemia = test system: SR leukemia
TK-10 renal = test system: TK-10 renal
ACHN renal = test system: ACHN renal
HL-60(TB) leukemia = test system: HL-60(TB) leukemia
CCRF-CEM leukemia = test system: CCRF-CEM leukemia
SF-539 CNS = test system: SF-539 CNS
NCI-H226 lung = test system: NCI-H226 lung
M14 melanoma = test system: M14 melanoma
MDA-MB-435 = test system: MDA-MB-435
KM12 colon = test system: KM12 colon

SMILES	TGI (K-562 leukemia)	TGI (OVCAR-4 ovarian)	TGI (786-0 renal)	TGI (NCI-H23 lung)	TGI (SF-295 CNS)	TGI (MDA-N)	TGI (NCI/ADR-RES ovarian)	TGI (NCI-H460 lung)	TGI (BT-549 breast)	TGI (SR leukemia)	TGI (TK-10 renal)	TGI (ACHN renal)	TGI (HL-60(TB) leukemia)	TGI (CCRF-CEM leukemia)	TGI (SF-539 CNS)	TGI (NCI-H226 lung)	TGI (M14 melanoma)	TGI (MDA-MB-435)	TGI (KM12 colon)
C=CCN1C(=O)CC2[C@@H]3CCc4cc(O)ccc4C3CC[C@]2(C)C1=O (stereo not given in full)	> 10 µM	> 10 µM	> 10 µM	> 10 µM	> 10 µM	> 10 µM	> 10 µM	> 10 µM	> 10 µM	> 10 µM	> 10 µM	> 10 µM	> 10 µM	> 10 µM	> 10 µM	> 10 µM	> 10 µM	> 10 µM	> 10 µM
COC1=C(C(c2cc(OC)c(OC)c(OC)c2)c2cc3c(cc2OC)OCO3)C(=O)OC1 (stereo not given)	> 100 µM	> 95.1 µM	65.4 µM	> 80 µM	51.4 µM	17.1 µM	26.2 µM	> 84.7 µM	> 100 µM	> 61.7 µM	> 73.2 µM	> 79.3 µM	49.9 µM	> 68.8 µM	41.2 µM	79.7 µM	63.6 µM	17.5 µM	40.9 µM
COC(=O)c1c(O)c(C#N)c2[nH]c3ccccc3n2c1=O	> 100 µM	> 100 µM	> 100 µM	> 100 µM	> 100 µM	> 100 µM	> 100 µM	> 100 µM	> 100 µM	> 100 µM	> 100 µM	> 100 µM	> 100 µM	> 100 µM	> 100 µM	> 100 µM	> 100 µM	> 100 µM	> 100 µM
O=C1C2C3C4C1C1C2[C@H](OCc2ccccc2)C3C1[C@H]4OCc1ccccc1 (stereo not given in full)	> 100 µM	> 100 µM	> 100 µM	> 100 µM	> 100 µM	> 100 µM	54.8 µM	> 100 µM	> 100 µM	> 100 µM	> 100 µM	> 100 µM	50.9 µM	> 100 µM	> 100 µM	> 100 µM	> 100 µM	> 100 µM	> 100 µM
C=C1c2nc3ccccc3n2C=C(c2ccc(OC)cc2)N1c1ccc(OCCN2CCCCC2)cc1	> 100 µM	> 100 µM	> 52.5 µM	> 61.4 µM	> 100 µM	> 100 µM	> 86.4 µM	14.8 µM	> 100 µM	28.6 µM	41.8 µM	> 81.7 µM	20 µM	10.1 µM	81.2 µM	> 96.7 µM	> 100 µM	> 74.9 µM	> 100 µM
O=C(CNc1ccccc1[N+](=O)[O-])Nn1cnc2ccc(S(=O)(=O)Nc3ccccc3[N+](=O)[O-])cc2c1=O	> 100 µM	> 100 µM	> 100 µM	> 100 µM	> 100 µM	> 100 µM	> 100 µM	> 100 µM	> 100 µM	> 100 µM	> 100 µM	> 100 µM	> 100 µM	> 100 µM	> 100 µM	> 100 µM	> 100 µM	> 100 µM	> 100 µM
CN1CCN(c2cc3[nH]c4cc(O)cc(O)c4c(=O)c3cc2N)CC1	36.1 µM	69.5 µM	> 100 µM	> 100 µM	> 100 µM	69 µM	> 100 µM	> 100 µM	95.1 µM	21 µM	94.2 µM	> 100 µM	> 100 µM	32.9 µM	17.4 µM	5.25 µM	> 100 µM	42.4 µM	71.7 µM
COC(=O)NC(=O)NC(Cc1ccccc1)NC(=O)OCc1ccccc1 (stereo not given)	> 100 µM	> 100 µM	> 100 µM	> 100 µM	> 100 µM	> 100 µM	> 100 µM	> 100 µM	> 100 µM	> 100 µM	> 100 µM	> 100 µM	> 100 µM	> 100 µM	71.4 µM	> 100 µM	> 100 µM	> 100 µM	> 100 µM
Clc1ccc(Cc2nc3ccccc3o2)cc1	> 100 µM	> 100 µM	> 100 µM	> 100 µM	> 100 µM	> 100 µM	> 100 µM	> 100 µM	> 100 µM	> 100 µM	> 100 µM	> 100 µM	> 100 µM	> 100 µM	> 100 µM	> 100 µM	> 100 µM	> 100 µM	> 100 µM
CC(C)(C)N(Cc1ccccc1)C(=O)/C=C\S(=O)c1ccccc1 (stereo not given)	> 100 µM	9.25 µM	4.87 µM	7.74 µM	27.3 µM	8.64 µM	13.7 µM	16 µM	12.9 µM	> 29.6 µM	18.5 µM	15.9 µM	6.54 µM	> 44.9 µM	9.67 µM	16.4 µM	8.91 µM	11.3 µM	18.1 µM

From PubChem BioAssay (NCI)
